From paper PMC3726668, “A Characterization of the Manduca sexta Serotonin Receptors in the Context of Olfactory Neuromodulation” (PLoS ONE, 2013)

Key:
Assay type in all cases: cell-based
Ms5HT1B receptor [1] = target: T1, Ms5HT1B receptor (Manduca sexta, UniProt Q0GMY1); experiment: two-electrode voltage clamp, Xenopus oocytes, endogenous chloride current; details: for activity at 3 µM: read-out: 5HT1B receptor
T1 construct: gene 5HT1B
T1 sequence (Q0GMY1 1-448): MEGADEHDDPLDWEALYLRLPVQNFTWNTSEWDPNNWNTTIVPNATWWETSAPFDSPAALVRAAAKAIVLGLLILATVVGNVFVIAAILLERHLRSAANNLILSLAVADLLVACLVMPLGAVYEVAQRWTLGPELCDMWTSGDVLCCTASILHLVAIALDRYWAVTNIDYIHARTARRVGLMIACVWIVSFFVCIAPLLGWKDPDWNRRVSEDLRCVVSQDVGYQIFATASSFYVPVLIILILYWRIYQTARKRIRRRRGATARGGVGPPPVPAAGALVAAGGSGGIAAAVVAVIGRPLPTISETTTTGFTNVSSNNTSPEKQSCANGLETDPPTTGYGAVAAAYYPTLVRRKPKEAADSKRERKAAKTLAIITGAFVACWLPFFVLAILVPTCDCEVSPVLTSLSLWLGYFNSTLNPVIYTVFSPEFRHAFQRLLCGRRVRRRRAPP
Excerpt: two-electrode voltage clamp, Xenopus oocytes, endogenous chloride current on Ms5HT1B receptor

Ms5HT1A receptor = target: T2, Ms5HT1A receptor (Manduca sexta, UniProt Q0GMY2); experiment: two-electrode voltage clamp, Xenopus oocytes, CFTR current; details: read-out: 5HT1A receptor
T2 construct: gene 5HT1A; about 51 kDa
T2 sequence (Q0GMY2 1-463): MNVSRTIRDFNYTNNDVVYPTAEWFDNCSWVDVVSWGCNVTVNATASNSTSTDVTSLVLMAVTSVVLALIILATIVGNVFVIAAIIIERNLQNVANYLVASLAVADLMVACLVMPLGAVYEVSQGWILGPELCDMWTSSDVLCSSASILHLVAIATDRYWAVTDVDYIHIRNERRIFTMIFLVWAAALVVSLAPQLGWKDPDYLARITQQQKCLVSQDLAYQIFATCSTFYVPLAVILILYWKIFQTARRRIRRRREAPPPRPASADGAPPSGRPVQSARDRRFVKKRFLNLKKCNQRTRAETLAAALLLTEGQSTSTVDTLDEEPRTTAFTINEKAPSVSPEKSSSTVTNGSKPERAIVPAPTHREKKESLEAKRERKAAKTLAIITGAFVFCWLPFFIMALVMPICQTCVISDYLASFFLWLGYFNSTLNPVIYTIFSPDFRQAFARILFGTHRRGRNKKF
Excerpt: two-electrode voltage clamp, Xenopus oocytes, CFTR current on Ms5HT1A receptor

Ms5HT7 receptor [2] = target: T3, Ms5HT7 receptor (Manduca sexta, UniProt S4UQW2); experiment: two-electrode voltage clamp, Xenopus oocytes, endogenous chloride current; details: 3 µM; partial agonist; relative to 1 µM 5-HT
T3 construct: gene 5HT7; Xenopus oocytes (pBS-MXT, receptor cRNA alone)
T3 sequence (S4UQW2 38-563): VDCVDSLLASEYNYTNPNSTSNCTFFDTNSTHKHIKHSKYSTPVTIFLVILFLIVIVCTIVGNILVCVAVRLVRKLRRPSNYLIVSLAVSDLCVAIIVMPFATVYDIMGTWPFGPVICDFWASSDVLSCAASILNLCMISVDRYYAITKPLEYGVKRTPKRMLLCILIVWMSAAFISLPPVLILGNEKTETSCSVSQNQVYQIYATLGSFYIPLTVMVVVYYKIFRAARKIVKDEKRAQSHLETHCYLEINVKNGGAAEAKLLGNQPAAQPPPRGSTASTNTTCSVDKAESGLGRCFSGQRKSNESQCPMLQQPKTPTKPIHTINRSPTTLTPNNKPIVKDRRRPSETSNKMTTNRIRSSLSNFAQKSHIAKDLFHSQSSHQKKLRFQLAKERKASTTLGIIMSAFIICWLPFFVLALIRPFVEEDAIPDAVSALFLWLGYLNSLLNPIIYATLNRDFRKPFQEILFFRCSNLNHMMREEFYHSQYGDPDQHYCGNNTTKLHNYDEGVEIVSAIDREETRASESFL
Excerpt: two-electrode voltage clamp, Xenopus oocytes, endogenous chloride current on Ms5HT7 receptor

Ms5HT1B receptor [3] = target: T1, Ms5HT1B receptor; experiment: two-electrode voltage clamp, Xenopus oocytes, endogenous calcium-dependent chloride current
Ms5HT2 receptor = target: T4, Ms5HT2 receptor (Manduca sexta, UniProt S4USL2); experiment: as above
T4 construct: gene 5HT2

Ms5HT7 receptor [4] = target: T3, Ms5HT7 receptor; experiment: as above

T4 sequence (S4USL2 1-635): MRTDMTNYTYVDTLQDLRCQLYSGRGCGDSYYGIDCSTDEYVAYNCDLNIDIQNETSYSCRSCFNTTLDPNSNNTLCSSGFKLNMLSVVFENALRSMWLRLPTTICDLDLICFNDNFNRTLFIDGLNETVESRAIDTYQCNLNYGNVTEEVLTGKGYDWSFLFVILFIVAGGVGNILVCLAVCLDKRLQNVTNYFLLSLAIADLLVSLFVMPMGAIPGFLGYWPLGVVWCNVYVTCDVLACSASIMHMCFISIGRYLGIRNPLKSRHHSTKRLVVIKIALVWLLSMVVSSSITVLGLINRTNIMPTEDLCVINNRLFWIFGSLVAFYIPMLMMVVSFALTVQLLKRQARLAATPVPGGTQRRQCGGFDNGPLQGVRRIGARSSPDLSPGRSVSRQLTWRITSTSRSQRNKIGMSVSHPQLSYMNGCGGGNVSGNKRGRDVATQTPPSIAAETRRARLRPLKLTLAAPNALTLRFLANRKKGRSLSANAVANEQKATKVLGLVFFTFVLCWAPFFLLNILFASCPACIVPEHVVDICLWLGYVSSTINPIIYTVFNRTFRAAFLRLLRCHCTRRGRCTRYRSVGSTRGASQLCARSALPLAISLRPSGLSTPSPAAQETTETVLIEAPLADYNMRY

Question: `COc1ccc2[nH]cc(CCN)c2c1` [5-methoxytryptamine] was tested. Which 5HT1B receptor (Ms5HT1B receptor [1]; agonist, relative to 1 µM 5-HT) did it give?
Answer: The 5HT1B receptor was 7.2 ± 1.4%.

Question: With `COc1ccccc1N1CCN(CCN(C(=O)C2CCCCC2)c2ccccn2)CC1` [WAY100635] as the molecule, how does the activity at 3 µM (Ms5HT1A receptor) read?
Answer: Its activity at 3 µM is 76.8 ± 15.8%.

Question: What about the activity at 3 µM (Ms5HT1B receptor [1]) of the same molecule?
Answer: Its activity at 3 µM is 38.2 ± 3.3%.

Question: With `CSc1ccc2c(c1)C(N1CCN(C)CC1)Cc1ccccc1S2` (centres unmarked) [methiothepin] as the molecule, how does the activity at 3 µM (Ms5HT1B receptor [1]) read?
Answer: Its activity at 3 µM is 36.4 ± 12.6%.

Question: For `CC[C@@H](CO)NC(=O)[C@@H]1C=C2c3cccc4c3c(cn4C)C[C@H]2N(C)C1` [methysergide], which Ms5HT7 (Ms5HT7 receptor [2]) is on record?
Answer: The Ms5HT7 was 49.5 ± 12%.

Question: For `NCCc1c[nH]c2ccc(O)cc12` [serotonin], which EC50 (Ms5HT1B receptor [3]) is on record?
Answer: Its EC50 is 57 nM.

Question: And the EC50 (Ms5HT2 receptor)?
Answer: Its EC50 is 25.4 nM.

Question: What about the EC50 (Ms5HT7 receptor [4]) of the same molecule?
Answer: The EC50 was 10.5 nM.
